Data: BigSolDB 2.1

CC(C)(C)C(=O)C(Oc1ccc(Cl)cc1)n1ccnc1 (centres undefined)
solubility (mole fraction)
Settings	278.15 K	283.15 K	288.15 K	293.15 K	298.15 K	303.15 K	308.15 K	313.15 K	318.15 K
in ethanol	0.0801	0.0952	0.112	0.133	0.159	0.184	0.215	0.249	0.287
in n-butanol	0.0804	0.0957	0.112	0.132	0.156	0.18	0.209	0.243	0.282
in n-heptanol	0.0686	0.0797	0.0937	0.111	0.131	0.152	0.18	0.21	0.245
in n-hexanol	0.073	0.0858	0.0999	0.119	0.141	0.164	0.192	0.223	0.263
in n-pentanol	0.0781	0.0912	0.107	0.127	0.15	0.174	0.204	0.238	0.273
in n-propanol	0.0842	0.0998	0.117	0.139	0.165	0.19	0.22	0.254	0.29
